Assay results: PMC4875962 (Clinical Pharmacokinetics, 2015)

How the values were obtained:
[1] = test system: Transporters; conditions: cited from earlier work
[2] = test system: Metabolic CYP enzymes; conditions: cited from earlier work
[3] = after multiple doses; cited from earlier work
[4] = test system: platelet aggregation; conditions: day 2 ratio (90 % CI 68.20–71.62); data on file

Row | SMILES | Transporters inhibited [1] | Metabolic CYP enzymes inhibited [2] | further results
1 | CCCCc1oc2ccc(NS(C)(=O)=O)cc2c1C(=O)c1ccc(OCCCN(CCCC)CCCC)cc1 [Dronedarone] | P-gp | Moderate 3A4 | 
2 | COc1ccc2nc([S@@+]([O-])Cc3ncc(C)c(OC)c3C)[nH]c2c1 [Esomeprazole] |  | 2C9, 2C19 (competitive) | gastric pH [3]: approximately 5
3 | CC(=O)N1CCN(c2ccc(OCC3COC(Cn4ccnc4)(c4ccc(Cl)cc4Cl)O3)cc2)CC1 (stereo not shown) [Ketoconazole] | P-gp | Strong 3A4; weak 2C8, 2C19 | 
4 | COc1ccc2cc([C@H](C)C(=O)O)ccc2c1 [Naproxen] |  |  | baseline-corrected ratio for platelet aggregation [4]: 69.89%
5 | C=C[C@H]1C[N@@]2CC[C@H]1C[C@@H]2[C@@H](O)c1ccnc2ccc(OC)cc12 [Quinidine] | P-gp; OCT2 | Strong 2D6 | 
6 | CO[C@H]1/C=C/O[C@@]2(C)Oc3c(C)c(O)c4c(O)c(c(/C=N/N5CCN(C)CC5)c(O)c4c3C2=O)NC(=O)/C(C)=C\C=C\[C@H](C)[C@H](O)[C@@H](C)[C@@H](O)[C@@H](C)[C@H](OC(C)=O)[C@@H]1C [Rifampin] |  |  | Transporters induced [1]: P-gp
